This is an account of results in patent US8853246B2 (Dow AgroSciences LLC, priority 2009, dated 2014).

Like-named read-outs stand apart in the source and are kept apart here.

The subject of assay [1] is Green Peach Aphid (Myzus Persicae). In words: Insecticidal test for green peach aphid in foliar spray assay (col. MYZUPE). The assay is classed as in vivo. The conditions noted are these: for pest or weed control at 200 ppm: Myzus persicae, 72 h, read-out: MYZUPE 200 ppm (Corrected % Control, rating). In short, it runs like this: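 Corrected % control derives from microscope counts of live aphids per plant, treated against diluent-only checks, 3 days after foliar spraying at ~25 °C and 40% RH. Test solution was 200 ppm in 0.025% aqueous Tween 20, applied to both leaf sides of infested cabbage seedlings, four pots each.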

For assay [2], the system named is Sweetpotato Whitefly-Crawler (Bemisia Tabaci). The experiment in a line: Insecticidal test for sweetpotato whitefly-crawler in foliar spray assay (col. BEMITA). Type of assay: in vivo. The conditions noted are these: for pest or weed control at 200 ppm: Bemisia tabaci, read-out: BEMITA 200 ppm (Corrected % Control, rating). In short, it runs like this:
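Percent control, Abbott-corrected against diluent-sprayed plants, from microscope counts of live nymphs 8-9 days after treatment. Test solution at 200 ppm in 0.025% aqueous Tween 20 applied to both leaf sides of egg-infested cotton after a 5-6 day hatch period (82° F, 50% RH).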

For `CSCC(C)C(=O)Nc1sc(-c2cncc(Cl)c2)nc1C` (centres unmarked) [Compound 17, N-[2-(5-chloropyridin-3-yl)-4-methyl-thiazol-5-yl]-2-methyl-3-methylsulfanyl-propionamide], the pest or weed control at 200 ppm in assay [1] (green peach aphid) and in assay [2] (sweetpotato whitefly-crawler) was 80 to 100% throughout.
As for `CN(C(=O)c1ccc([S+](C)[O-])cc1)c1sc(-c2cccnc2)nc1Cl` (centres unmarked) [Compound 403], the “MYZUPE 200 ppm (Corrected % Control, rating)” value in assay [1] (green peach aphid) is given as “A (80-100)”. The “BEMITA 200 ppm (Corrected % Control, rating)” value in assay [2] (sweetpotato whitefly-crawler) is “B (Less than 80)”.
`CN(C(=O)C(C)(C)C[S+](C)[O-])c1sc(-c2cccnc2)nc1Cl` (centres unmarked) [Compound 269]: the pest or weed control at 200 ppm in assay [1] (green peach aphid) and in assay [2] (sweetpotato whitefly-crawler) was 80 to 100% in each case.
As to `Cc1cc(C(=O)Nc2sc(-c3cccnc3)nc2C)ccn1` [Compound 406], the results for the pest or weed control at 200 ppm in assay [1] (green peach aphid) and in assay [2] (sweetpotato whitefly-crawler) were 80 to 100% and less than 80%, respectively.
`Cc1nc(-c2cncc(F)c2)sc1N(C)C(=O)C1CCCN(C(=O)CC(F)(F)F)C1` (centres unmarked) [Compound 584]: the pest or weed control at 200 ppm in assay [1] (Abbott's correction formula) and in assay [2] (Abbott's correction formula) was less than 80% in each case.
For the compound `CN(C(=O)C(F)(F)F)c1sc(-c2cccnc2)nc1-c1ccccc1` [Compound 4, 2,2,2-Trifluoro-N-methyl-N-(4-phenyl-2-pyridin-3-yl-thiazol-5-yl)-acetamide], the pest or weed control at 200 ppm in assay [1] (green peach aphid) and in assay [2] (sweetpotato whitefly-crawler) was less than 80% each time.
As for `CCN(C(=O)OC(C)(C)C)c1sc(-c2cccnc2)nc1Cl` [Compound 304, (4-chloro-2-pyridin-3-yl-thiazol-5-yl)-ethyl-carbamic Acid Tert-Butyl Ester], the pest or weed control at 200 ppm in assay [1] (green peach aphid) and in assay [2] (sweetpotato whitefly-crawler) was 80 to 100% in each case.
Regarding `CCN(C(=O)C(C)(C)CSC)c1sc(-c2cccnc2)nc1C` [Compound 237], the pest or weed control at 200 ppm in assay [1] (green peach aphid) and in assay [2] (sweetpotato whitefly-crawler) was 80 to 100% each time.
In the case of `CCN(C(=O)CCSc1ccccc1)c1sc(-c2cccnc2)nc1C` [Compound 321], the pest or weed control at 200 ppm in assay [1] (green peach aphid) is 80 to 100%; in assay [2] (sweetpotato whitefly-crawler), less than 80%.
The matching figures for `Cc1nc(-c2cncc(F)c2)sc1N(C)C(=O)C(C)CS(C)(=O)=NC#N` (centres unmarked) [Compound 168]: 80 to 100% and 80 to 100%.
Turning to `CSCC(C)C(=O)Nc1sc(-c2cccnc2)nc1Cl` (centres unmarked) [Compound 588], the pest or weed control at 200 ppm in assay [1] (Abbott's correction formula) and in assay [2] (Abbott's correction formula) was 80 to 100% each time.
`CCCCC(=O)N(CC)c1sc(-c2cccnc2)nc1Cl` [Compound 530]: the pest or weed control at 200 ppm in assay [1] (Abbott's correction formula) and in assay [2] (Abbott's correction formula) was 80 to 100% each time.
As for `Cc1nc(-c2cccnc2)sc1N(C)C(=O)C1=CC(=O)CC(C)(C)O1` [Compound 327], the pest or weed control at 200 ppm in assay [1] (green peach aphid) and in assay [2] (sweetpotato whitefly-crawler) was less than 80% throughout.
With `Cc1nc(-c2cccnc2)sc1N(C)C(=O)C(C)(C)CS(C)(=O)=O` [Compound 97], the pest or weed control at 200 ppm in assay [1] (green peach aphid) and in assay [2] (sweetpotato whitefly-crawler) was 80 to 100% in each case.
With `CC1CC1C(=O)N(C)c1sc(-c2cccnc2)nc1Cl` (centres unmarked) [Compound 569], the pest or weed control at 200 ppm in assay [1] (Abbott's correction formula) and in assay [2] (Abbott's correction formula) was 80 to 100% in each case.
In the case of `CCN(C(=O)CCS(C)(=O)=O)c1sc(-c2cccnc2)nc1Cl` [Compound 315], the pest or weed control at 200 ppm in assay [1] (green peach aphid) and in assay [2] (sweetpotato whitefly-crawler) was 80 to 100% each time.
For `CSCCC(=O)N(C)c1sc(-c2ccc(F)nc2)nc1Cl` [Compound 453, N-[4-chloro-2-(6-fluoro-pyridin-3-yl)-thiazol-5-yl]-N-methyl-3-methylsulfanyl-propionamide], the pest or weed control at 200 ppm in assay [1] (Abbott's correction formula) and in assay [2] (Abbott's correction formula) was 80 to 100% in each case.
Regarding `C/C=C/CN(C(=O)C(C)CSC)c1sc(-c2cccnc2)nc1C` (centres unmarked) [Compound 466], the pest or weed control at 200 ppm in assay [1] (Abbott's correction formula) is 80 to 100%; in assay [2] (Abbott's correction formula), less than 80%.
As to `CSCC(C)C(=O)N(C)c1sc(-c2cccnc2)nc1C(F)(F)F` (centres unmarked) [Compound 44], the pest or weed control at 200 ppm in assay [1] (green peach aphid) and in assay [2] (sweetpotato whitefly-crawler) was 80 to 100% throughout.
Consider `CN(C(=O)C1=CC(=O)CC(C)(C)O1)c1sc(-c2cccnc2)nc1Cl` [Compound 328], for which the pest or weed control at 200 ppm in assay [1] (green peach aphid) and in assay [2] (sweetpotato whitefly-crawler) was less than 80% each time.
Take `CSC(C)C(C)C(=O)N(C)c1sc(-c2cncc(F)c2)nc1Cl` (centres unmarked) [Compound 444]: the pest or weed control at 200 ppm in assay [1] (Abbott's correction formula) and in assay [2] (Abbott's correction formula) was 80 to 100% throughout.
As to `CSCC(C)C(=O)N(C(=O)C(C)C)c1sc(-c2cncc(S(C)(=O)=O)c2)nc1C` (centres unmarked) [Compound 152], the pest or weed control at 200 ppm in assay [1] (green peach aphid) and in assay [2] (sweetpotato whitefly-crawler) was less than 80% throughout.
In the case of `CCOC1(N(C(=O)OC(C)(C)C)c2sc(-c3cccnc3)nc2C)CC1` [Compound 518], the pest or weed control at 200 ppm was 80 to 100% in assay [1] (Abbott's correction formula) and less than 80% in assay [2] (Abbott's correction formula).
Regarding `CCN(C(=O)CC(C)SC)c1sc(-c2cccnc2)nc1Cl` (centres unmarked) [Compound 324], the pest or weed control at 200 ppm in assay [1] (green peach aphid) is 80 to 100%; in assay [2] (sweetpotato whitefly-crawler) it was less than 80%.
The matching figures for `CN(C(=O)C(F)(F)F)c1cnc(-c2cccnc2)s1` [Compound 2, 2,2,2-Trifluoro-N-methyl-N-(2-pyridin-3-yl-thiazol-5-yl)-acetamide]: less than 80% and less than 80%.
As for `CCN(C(=O)Cc1cccs1)c1sc(-c2cccnc2)nc1Cl` [Compound 550], the pest or weed control at 200 ppm in assay [1] (Abbott's correction formula) was less than 80%; in assay [2] (Abbott's correction formula), 80 to 100%.
The matching figures for `CN(C(=O)CN(C)S(=O)(=O)/C=C/c1ccccc1)c1sc(-c2cccnc2)nc1Cl` [Compound 437]: less than 80% and less than 80%.
The matching figures for `CCN(C(=O)c1snnc1C)c1sc(-c2cccnc2)nc1Cl` [Compound 556]: 80 to 100% and less than 80%.
As for `CN(C(=O)c1ccc(=O)n(C)n1)c1sc(-c2cccnc2)nc1Cl` [Compound 405], the “MYZUPE 200 ppm (Corrected % Control, rating)” value in assay [1] (green peach aphid) is recorded as “A (80-100)”. Further, in assay [2] (sweetpotato whitefly-crawler), the “BEMITA 200 ppm (Corrected % Control, rating)” value is given as “B (Less than 80)”.
As to `CSCCC(=O)N(C)c1sc(-c2cncc(F)c2)nc1C` [Compound 38], the pest or weed control at 200 ppm in assay [1] (green peach aphid) and in assay [2] (sweetpotato whitefly-crawler) was 80 to 100% each time.
Turning to `CSCCC(=O)N(C)c1sc(-c2cncnc2)nc1Cl` [Compound 509], the pest or weed control at 200 ppm in assay [1] (Abbott's correction formula) and in assay [2] (Abbott's correction formula) was 80 to 100% each time.
On to `CSCC(C)C(=O)N(C)c1sc(-c2cccnc2)nc1C(C)C` (centres unmarked) [Compound 60], for which the pest or weed control at 200 ppm in assay [1] (green peach aphid) and in assay [2] (sweetpotato whitefly-crawler) was less than 80% throughout.
Consider `Cc1nc(-c2cncc(F)c2)sc1NC(=O)C(C)CS(C)(=O)=NC#N` (centres unmarked) [Compound 164, 3-[cyano(methyl)sulfonimidoyl]-N-[2-(5-fluoropyridin-3-yl)-4-methyl-1,3-thiazol-5-yl]-2-methylpropanamide], for which the pest or weed control at 200 ppm in assay [1] (green peach aphid) is 80 to 100%; in assay [2] (sweetpotato whitefly-crawler), less than 80%.
The matching figures for `CCN(C(=O)CC[S+](C)[O-])c1sc(-c2cccnc2)nc1Cl` (centres unmarked) [Compound 314]: 80 to 100% and 80 to 100%.
As to `CSCC(Cc1ccccc1)C(=O)Nc1sc(-c2cccnc2)nc1C` (centres unmarked) [Compound 329], the pest or weed control at 200 ppm in assay [1] (green peach aphid) and in assay [2] (sweetpotato whitefly-crawler) was less than 80% in each case.
`CSCC(C)C(=O)N(C)c1sc(-c2cccnc2)nc1C` (centres unmarked) [Compound 36]: the pest or weed control at 200 ppm in assay [1] (green peach aphid) and in assay [2] (sweetpotato whitefly-crawler) was 80 to 100% each time.
`CCc1nc(-c2cccnc2)sc1N(C)C(=O)C(C)C` [Compound 48]: the pest or weed control at 200 ppm in assay [1] (green peach aphid) and in assay [2] (sweetpotato whitefly-crawler) was 80 to 100% in each case.
In the case of `Cc1nc(-c2cccnc2)sc1NC(=O)CN(C)C(=O)c1cccs1` [Compound 438], the pest or weed control at 200 ppm in assay [1] (Abbott's correction formula) was 80 to 100%; in assay [2] (Abbott's correction formula), less than 80%.
For `CCc1nc(-c2cccnc2)sc1N(C)C(=O)CCSC` [Compound 47], the pest or weed control at 200 ppm in assay [1] (green peach aphid) and in assay [2] (sweetpotato whitefly-crawler) was 80 to 100% throughout.
For the compound `Cc1nc(-c2cccnc2)sc1N(C)C(=O)CCS(C)(=O)=O` [Compound 95, 3-methanesulfonyl-N-methyl-N-(4-methyl-2-pyridin-3-yl-thiazol-5-yl)-propionamide], the pest or weed control at 200 ppm in assay [1] (green peach aphid) and in assay [2] (sweetpotato whitefly-crawler) was 80 to 100% throughout.
`CCN(C(=O)c1ccccn1)c1sc(-c2cccnc2)nc1Cl` [Compound 574]: the pest or weed control at 200 ppm in assay [1] (Abbott's correction formula) is 80 to 100%; in assay [2] (Abbott's correction formula) it was less than 80%.
Take `C/C=C/CCC(=O)Nc1sc(-c2cccnc2)nc1C` [Compound 418]: the pest or weed control at 200 ppm in assay [1] (green peach aphid) and in assay [2] (sweetpotato whitefly-crawler) was 80 to 100% in each case.
For the compound `Cc1nc(-c2cccnc2)sc1N(C)C(=O)OC1(C)CCCCC1` [Compound 493], the pest or weed control at 200 ppm in assay [1] (Abbott's correction formula) and in assay [2] (Abbott's correction formula) was 80 to 100% each time.
With `Cc1nc(-c2cncc(F)c2)sc1N(C)C(=O)C1CCCNC1` (centres unmarked) [Compound 581], the pest or weed control at 200 ppm in assay [1] (Abbott's correction formula) and in assay [2] (Abbott's correction formula) was less than 80% each time.
As for `CSCC(C)C(=O)N(C(=O)OC(C)(C)C)c1sc(-c2cncc(S(C)(=O)=O)c2)nc1C` (centres unmarked) [Compound 157], the pest or weed control at 200 ppm in assay [1] (green peach aphid) and in assay [2] (sweetpotato whitefly-crawler) was less than 80% in each case.
Regarding `Cc1nc(-c2cccnc2)sc1N(CCS(C)(=O)=O)C(=O)OC(C)(C)C` [Compound 568], the pest or weed control at 200 ppm in assay [1] (Abbott's correction formula) and in assay [2] (Abbott's correction formula) was less than 80% each time.
